Consider one compound from patent US6387921B1 (dated 2002).

Consider `CC1(C)[C@H]2Cc3c(N)cccc3[C@]1(C)CCN2CCOCc1c(F)cccc1F.Cl.Cl`, for which the melting point (in general, the temperature of the solid-liquid transition) was 270 °C.
